# Data as given in publication PMC6104039 (Nature Communications, 2018).
# Several values for one entry are separate records, joined by “and”; a condition that tells them apart may be missing. Identical values can stand only once. Entries after “also recorded” stand apart in the source; their conditions may differ.
# What was measured:
# [1] = biological target: recombinant human sphingosine kinase 1 (Homo sapiens, UniProt Q9NYA1); conditions: 10 μM
# Protocol: Sphingosine kinase assays were performed using fluorescent NBD-dihydrosphingosine[63],[64]. […] Reactions were stopped with 100 μL methanol, and 5 μL amounts were resolved on Silica Gel 60 thin layer chromatography (TLC) plates using butanol:acetic acid:water (3:1:1). The fluorescent NBD-dihydrosphingosine 1-phosphate band was quantified using a BioRad ChemiDoc imaging system with excitation by UV light.
# Supplementary Figure 2. […] Activity of recombinant
# human sphingosine kinases 1 and 2 (SphK1 and 2) was assessed in the presence of 10 µM
# Activity is expressed as a percentage of the vehicle control.
# adipose tissue = experiment: Ceramide and SM species in epididymal adipose tissue; assay type: in vivo, mice; conditions: Chow + P053, individual values
# Protocol: Male C57BL6/J mice were obtained from the Animal Resources Centre in Perth (WA, Australia). Mice were housed at 22 ± 1 °C with a controlled 12:12 h light-dark cycle and had ad libitum access to water and either chow (8% calories from fat) or HFD (45% calories from fat)[66] for 4–6 weeks. […] Treatment was commenced at the same time as mice were randomised to dietary groups. The experiments were approved by the UNSW animal care and ethics committee (ACEC 15/48B), and followed guidelines issued by the National Health and Medical Research Council of Australia.
# Lipids were extracted from frozen tissue samples or cells using a two-phase procedure with methyl-tert-butyl ether (MTBE)/methanol/water (10:3:2.5, v/v/v)[67]. Frozen tissue samples (~20 mg) were homogenized in 0.2 mL methanol containing 0.01% butylated hydroxytoluene (BHT), using a Precellys 24 homogenizer and Cryolys cooling unit (Bertin Technologies) with CK14 (1.4-mm ceramic) beads. The homogenates were spiked with an internal standard mixture comprising 5 nmole 19:0/19:0 phosphatidylcholine and 2 nmole each of 17:0/17:0 phosphatidylethanolamine, 17:0/17:0 phosphatidylserine, 17:0/17:0 d5-diacylglycerol, 17:0/17:0 phosphatidylglycerol, 14:0/14:0/14:0/14:0 cardiolipin, 18:1/12:0 SM, 18:1/17:0 ceramide, 18:1/12:0 glucosylceramide, 18:1/12:0 lactosylceramide, 18:1/12:0 sulfatide (all from Avanti Polar Lipids, USA), and 17:0/17:0/17:0 TAG (Cayman Chemical, USA), then transferred to 10 mL screw cap glass tubes. The homogenization tubes containing beads were then washed with another 0.3 mL methanol, and this wash was combined with the first methanol extract, after which 1.7 mL MTBE was added and the samples were sonicated in an ice-cold sonicating water bath (Thermoline Scientific, Australia) for 30 min. Phase separation was induced by addition of 417 µL of mass spectrometry-grade water followed by vortexing and centrifugation at 1000 × g for 10 min. The upper organic phase was collected into 5 mL glass tubes. The lower phase was re-extracted by adding 1 mL MTBE, 300 μL methanol, and 250 μL water. The organic phases were combined in the 5 mL glass tubes and dried under vacuum in a Savant SC210 SpeedVac (Thermo Scientific), then reconstituted in 500 μL methanol and stored at −20 °C until analysis.
# Lipidomic profiling was performed on a QExactive Plus mass spectrometer with heated electrospray ionization (HESI) probe and a Dionex UltiMate 2000 LC pump (Thermo Fisher Scientific). Extracts were resolved on a 2.1 × 100 mm Waters Acquity C18 UPLC column (1.7 µm […]), using a binary gradient in which mobile phase A consisted of acetonitrile:water (60:40), 10 mM ammonium formate, 0.1% formic acid; and mobile phase B was isopropanol:acetonitrile (90:10), 10 mM ammonium formate, 0.1% formic acid[68]. The flow rate was 260 µL/min and column oven 55 °C. Data was acquired in full scan/data-dependent MS^2 mode (full scan resolution 70,000 FWHM, scan range 400–1200 m/z). The ten most abundant ions in each cycle were subjected to MS^2 using an isolation window of 1.4 m/z, collision energy 30 eV, resolution 17,500, maximum integration time 110 ms and dynamic exclusion window 10 s. An exclusion list of background ions was used based on a solvent blank. LipidSearch v4.1.30 software (ThermoFisher Scientific) was used for chromatogram alignment, peak identification and integration. Each lipid peak was manually verified for column elution time and characteristic fragment ions. Data were then exported to an Excel spreadsheet for normalisation of each lipid to its class-specific internal standard, and lipid concentrations were calculated relative to the internal standard.
# recombinant human sphingosine kinase 1, sequence (Q9NYA1 whole entry): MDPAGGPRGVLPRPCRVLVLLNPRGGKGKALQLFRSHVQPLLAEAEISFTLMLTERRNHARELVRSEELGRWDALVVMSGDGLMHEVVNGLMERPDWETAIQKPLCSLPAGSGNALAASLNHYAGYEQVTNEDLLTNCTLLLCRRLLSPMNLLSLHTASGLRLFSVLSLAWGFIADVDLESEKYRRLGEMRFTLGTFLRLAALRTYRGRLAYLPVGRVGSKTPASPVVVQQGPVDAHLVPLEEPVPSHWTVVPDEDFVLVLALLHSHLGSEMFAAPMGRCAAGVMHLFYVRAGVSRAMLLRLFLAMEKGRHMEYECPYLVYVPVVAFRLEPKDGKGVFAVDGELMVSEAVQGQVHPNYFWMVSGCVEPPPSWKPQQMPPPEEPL
smiles,measurement,setting,value
"C[C@@](N)(CO)CCc1ccc(OCc2ccc(Cl)c(Cl)c2)cc1 [P053, (S)-2-amino-4-(4-(3,4-dichlorobenzyloxy)phenyl)-2-methylbutan-1-ol]",reduction in sphingosine kinase 1 activity,[1],did not inhibit; also recorded: does not inhibit; also recorded: no inhibitory activity
same,Ceramide 18:1/16:0 content of white adipose tissue,adipose tissue; raw data Fig 3l,10.929 and 4.227 and 17.193 and 8.156 and 14.726 and 6.210 and 17.172 and 6.636 and 12.272 and 15.061
same,Ceramide 18:1/18:0 content of white adipose tissue,adipose tissue; raw data Fig 3l,2.114 and 0.846 and 3.339 and 1.520 and 2.375 and 1.130 and 3.918 and 1.468 and 2.718 and 2.056
same,Ceramide 18:1/20:0 content of white adipose tissue,adipose tissue; raw data Fig 3l,1.814 and 0.867 and 3.626 and 1.453 and 2.395 and 1.178 and 2.617 and 1.217 and 2.593 and 1.998
same,Ceramide 18:1/22:0 content of white adipose tissue,adipose tissue; raw data Fig 3l,4.127 and 2.201 and 7.564 and 3.535 and 5.536 and 3.049 and 7.800 and 3.557 and 5.828 and 4.572
same,Ceramide 18:1/24:0 content of white adipose tissue,adipose tissue; raw data Fig 3l,6.125 and 3.020 and 12.234 and 6.320 and 9.940 and 4.064 and 14.430 and 5.790 and 10.017 and 7.844
same,Ceramide 18:1/24:1 content of white adipose tissue,adipose tissue; raw data Fig 3l,10.504 and 6.110 and 22.417 and 11.780 and 19.731 and 7.603 and 26.592 and 10.551 and 18.107 and 16.532
same,Ceramide 18:2/18:0 content of white adipose tissue,adipose tissue; raw data Fig 3l,1.183 and 0.312 and 1.256 and 0.618 and 1.358 and 0.382 and 1.268 and 0.527 and 0.931 and 1.219
same,Ceramide 18:2/22:0 content of white adipose tissue,adipose tissue; raw data Fig 3l,2.177 and 0.918 and 3.608 and 1.721 and 2.577 and 1.375 and 2.989 and 1.482 and 2.309 and 2.564
same,Ceramide 18:2/24:0 content of white adipose tissue,adipose tissue; raw data Fig 3l,4.508 and 1.750 and 7.166 and 3.688 and 5.287 and 2.715 and 7.269 and 3.296 and 4.451 and 6.052
same,Ceramide 18:2/24:1 content of white adipose tissue,adipose tissue; raw data Fig 3l,4.820 and 2.648 and 9.228 and 4.871 and 7.660 and 3.147 and 9.518 and 3.932 and 5.805 and 6.812
same,SM 34:1 content of white adipose tissue,adipose tissue; raw data Fig 3m,276.61 and 66.44 and 226.46 and 212.93 and 276.78 and 111.51 and 327.37 and 118.77 and 188.15 and 267.47
same,SM 34:2 content of white adipose tissue,adipose tissue; raw data Fig 3m,23.85 and 2.33 and 6.66 and 4.19 and 4.83 and 3.15 and 5.28 and 2.34 and 3.58 and 6.77
same,SM 36:1 content of white adipose tissue,adipose tissue; raw data Fig 3m,33.66 and 9.97 and 25.23 and 24.39 and 28.26 and 12.44 and 31.61 and 15.13 and 21.89 and 30.09
same,SM 36:2 content of white adipose tissue,adipose tissue; raw data Fig 3m,12.60 and 1.84 and 8.68 and 8.41 and 12.18 and 3.45 and 12.76 and 4.74 and 5.44 and 12.73
same,SM 38:1 content of white adipose tissue,adipose tissue; raw data Fig 3m,22.37 and 7.77 and 26.08 and 17.58 and 21.03 and 10.59 and 19.70 and 11.77 and 20.28 and 19.73
same,SM 38:2 content of white adipose tissue,adipose tissue; raw data Fig 3m,5.83 and 1.41 and 5.52 and 4.51 and 5.60 and 2.81 and 4.44 and 2.01 and 3.84 and 6.42
same,SM 40:1 content of white adipose tissue,adipose tissue; raw data Fig 3m,44.87 and 18.02 and 56.10 and 41.83 and 53.17 and 20.49 and 52.33 and 23.88 and 40.81 and 43.57
same,SM 40:2 content of white adipose tissue,adipose tissue; raw data Fig 3m,12.98 and 4.14 and 11.80 and 8.16 and 10.55 and 6.16 and 10.26 and 5.10 and 7.07 and 11.44
same,SM 42:1 content of white adipose tissue,adipose tissue; raw data Fig 3m,28.12 and 11.04 and 39.22 and 23.51 and 29.01 and 11.65 and 31.95 and 14.81 and 26.21 and 27.56
same,SM 42:2 content of white adipose tissue,adipose tissue; raw data Fig 3m,81.27 and 33.26 and 95.54 and 83.35 and 95.85 and 36.01 and 109.30 and 44.61 and 71.06 and 85.15
same,SM 42:3 content of white adipose tissue,adipose tissue; raw data Fig 3m,22.64 and 7.14 and 18.55 and 16.77 and 22.11 and 8.66 and 22.41 and 8.50 and 11.09 and 21.29
